Laboratory results from US6436874B1, “Synergistic herbicidal agents based on leaf herbicides containing phosphorus, imidazolinones and hormone weed killers” (priority 1998, dated 2002).
Like-named read-outs stand apart in the source and are kept apart here.

Legend:
Format in all cases: in vivo
Hedyotis verticillata = experiment: Field trial, herbicidal activity against Hedyotis verticillata in oil palm plantation; details: for inhibition at 50 g/ha: Scleromitrion verticillatum, No. 14, dose 50 g of AS/ha, read-out: Herbicidal activity (%), w. after appl.
Procedure: (§1) In an oil palm plantation, the economically important tropical weed Hedyotis verticillata was grown on plots of the dimensions 2×5 m under natural outdoor conditions and treated with the herbicides A1.2, B1 and C1 or their mixtures in a tank mix under standard conditions using a plot sprayer, at a water application rate of 450 liters of water per hectare (over-the-top application to the weeds; plant density initially more than 95% ground coverage). At intervals of 1, 2, 3, 4, 5, 6, 7 and 8 weeks after the application, the herbicidal efficacy of the active compounds or active compound mixtures was evaluated visually on the basis of the treated plots, in comparison with untreated control plots. The damage to and development of all above-ground parts of the plants were recorded. Evaluation was carried out using a percentage scale (100% effect=all plants killed; 50% effect=50% of the plants and the green parts of the plants killed; 0% effect=no noticeable effect=like control plot). The evaluation values of in each case 4 plots were averaged.

Asystasia intrusa = experiment: Field trial, herbicidal activity against Asystasia intrusa in rubber tree plantation; details: for Activity (%), w. after appl.: No. 16, dose 40 g of AS/ha; for inhibition at 50 g/ha: Asystasia intrusa, No. 3, dose 50 g of AS/ha
Procedure: as §1
In a rubber tree plantation, plots with the tropical weed Asystasia intrusa were grown under natural outdoor conditions (dimensions of the plots 2 x 5 m). The herbicides or their mixtures in a tank mix were applied under standard conditions (over-the-top application using a plot sprayer, water application rate 450 l/ha). In intervals of 4, 7, 13, 17 and 21 weeks after the application, the herbicidal efficacy of the active compounds or their mixtures was evaluated visually on the basis of the treated plots, in comparison with untreated control plots. The damage to and the development of all above-ground parts of the plants were recorded. Evaluation was carried out as described in Example 1.

Axonopus compressus = experiment: Field trial, herbicidal activity against Axonopus compressus in rubber tree plantation; details: for Activity (%), w. after appl.: No. 16, dose 40 g of AS/ha; for inhibition at 50 g/ha: Axonopus compressus, No. 3, dose 50 g of AS/ha
Procedure: as §1
In a rubber tree plantation, plots with the tropical weed Axonopus compressus were grown under natural outdoor conditions (plot dimensions 2×5 m). The herbicides or their mixtures in a tank mix were applied under standard conditions using a plot spayer at a water application rate of 450 liters of water per hectare (over-the-top application). At intervals of 4, 7, 13, 17 and 21 weeks after the application, the herbicidal efficacy of the active compounds or active compound mixtures was evaluated visually on the basis of the treated plots, in comparison with untreated control plots. The damage to and development of all above-ground parts of the plants were recorded. Evaluation was carried out as described in Example 1.

O=C([O-])COc1ccc(Cl)cc1Cl.[Na+] [C1, 2,4-D-sodium salt]
Herbicidal activity (%), w. after appl. (Hedyotis verticillata; No. 15, dose 40 g of AS/ha, 1 w. after appl.): 6%
Herbicidal activity (%), w. after appl. (Hedyotis verticillata; No. 15, dose 40 g of AS/ha, 2 w. after appl.): 5%
Herbicidal activity (%), w. after appl. (Hedyotis verticillata; No. 15, dose 40 g of AS/ha, 3 w. after appl.): 5%
Herbicidal activity (%), w. after appl. (Hedyotis verticillata; No. 15, dose 40 g of AS/ha, 4 w. after appl.): 4%
Herbicidal activity (%), w. after appl. (Hedyotis verticillata; No. 15, dose 40 g of AS/ha, 5 w. after appl.): 0%
Herbicidal activity (%), w. after appl. (Hedyotis verticillata; No. 15, dose 40 g of AS/ha, 6 w. after appl.): 0%
Herbicidal activity (%), w. after appl. (Hedyotis verticillata; No. 15, dose 40 g of AS/ha, 7 w. after appl.): 0%
Herbicidal activity (%), w. after appl. (Hedyotis verticillata; No. 15, dose 40 g of AS/ha, 8 w. after appl.): 0%
Herbicidal activity (%), w. after appl. (Hedyotis verticillata; No. 16, dose 20 g of AS/ha, 1 w. after appl.): 6%
Herbicidal activity (%), w. after appl. (Hedyotis verticillata; No. 16, dose 20 g of AS/ha, 2 w. after appl.): 5%
Herbicidal activity (%), w. after appl. (Hedyotis verticillata; No. 16, dose 20 g of AS/ha, 3 w. after appl.): 5%
Herbicidal activity (%), w. after appl. (Hedyotis verticillata; No. 16, dose 20 g of AS/ha, 4 w. after appl.): 1%
Herbicidal activity (%), w. after appl. (Hedyotis verticillata; No. 16, dose 20 g of AS/ha, 5 w. after appl.): 0%
Herbicidal activity (%), w. after appl. (Hedyotis verticillata; No. 16, dose 20 g of AS/ha, 6 w. after appl.): 0%
Herbicidal activity (%), w. after appl. (Hedyotis verticillata; No. 16, dose 20 g of AS/ha, 7 w. after appl.): 0%
Herbicidal activity (%), w. after appl. (Hedyotis verticillata; No. 16, dose 20 g of AS/ha, 8 w. after appl.): 0%
Activity (%), w. after appl. (Asystasia intrusa; 4 w. after appl.): 77%
Activity (%), w. after appl. (Asystasia intrusa; 7 w. after appl.): 67%
Activity (%), w. after appl. (Asystasia intrusa; 13 w. after appl.): 20%
Activity (%), w. after appl. (Asystasia intrusa; 17 w. after appl.): 10%
Activity (%), w. after appl. (Asystasia intrusa; 21 w. after appl.): 8%
Activity (%), w. after appl. (Axonopus compressus; 4 w. after appl.): 5%
Activity (%), w. after appl. (Axonopus compressus; 7 w. after appl.): 5%
Activity (%), w. after appl. (Axonopus compressus; 13 w. after appl.): 0%
Activity (%), w. after appl. (Axonopus compressus; 17 w. after appl.): 0%
Activity (%), w. after appl. (Axonopus compressus; 21 w. after appl.): 0%

CC(C)C1(C)N=C(c2ncccc2C(=O)O)NC1=O (centres unmarked) [B1, Imazapyr]
inhibition at 50 g/ha (Hedyotis verticillata; 1 w. after appl.): 8%
inhibition at 50 g/ha (Hedyotis verticillata; 2 w. after appl.): 5%
inhibition at 50 g/ha (Hedyotis verticillata; 3 w. after appl.): 5%
inhibition at 50 g/ha (Hedyotis verticillata; 4 w. after appl.): 5%
inhibition at 50 g/ha (Hedyotis verticillata; 5 w. after appl.): 10%
inhibition at 50 g/ha (Hedyotis verticillata; 6 w. after appl.): 13%
inhibition at 50 g/ha (Hedyotis verticillata; 7 w. after appl.): 15%
inhibition at 50 g/ha (Hedyotis verticillata; 8 w. after appl.): 15%
inhibition at 50 g/ha (Asystasia intrusa; 4 w. after appl.): 45%
inhibition at 50 g/ha (Asystasia intrusa; 7 w. after appl.): 40%
inhibition at 50 g/ha (Asystasia intrusa; 13 w. after appl.): 40%
inhibition at 50 g/ha (Asystasia intrusa; 17 w. after appl.): 47%
inhibition at 50 g/ha (Asystasia intrusa; 21 w. after appl.): 53%
inhibition at 50 g/ha (Axonopus compressus; 4 w. after appl.): 35%
inhibition at 50 g/ha (Axonopus compressus; 7 w. after appl.): 35%
inhibition at 50 g/ha (Axonopus compressus; 13 w. after appl.): 45%
inhibition at 50 g/ha (Axonopus compressus; 17 w. after appl.): 45%
inhibition at 50 g/ha (Axonopus compressus; 21 w. after appl.): 50%
